In US7772270B2, “Imino acid derivatives as inhibitors of matrix metalloproteinases” (sanofi-aventis Deutschland GmbH, priority 2003, dated 2010):

Experiments:
[1] = biological target: T1, catalytic domain of human neutrophilic collagenase (MMP-8) (Homo sapiens, UniProt P22894); assay: Enzymatic activity of the catalytic domain of human neutrophilic collagenase (MMP-8), fluorogenic substrate; assay type: biochemical; details: 15 min preincubation, pH 7.5, fluorescence 328/393 nm
T1 construct: catalytic domain of human stromelysin (MMP-3) and neutrophilic collagenase (MMP-8); made in house
T1 sequence (P22894 100-262 limits assumed): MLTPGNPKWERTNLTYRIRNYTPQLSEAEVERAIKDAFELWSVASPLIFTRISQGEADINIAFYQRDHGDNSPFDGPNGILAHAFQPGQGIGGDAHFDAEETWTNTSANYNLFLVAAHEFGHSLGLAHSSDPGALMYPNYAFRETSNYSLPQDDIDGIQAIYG
Description: (§1) The two enzymes, i.e., stromelysin (MMP-3) and neutrophilic collagenase (MMP-8), were prepared as described in Ye et al. (Biochemistry; 31 (1992) pages 11231-11235). For measuring enzymatic activity or the effect of an enzyme inhibitor, 70 μl of buffer solution and 10 μl of enzyme solution are incubated, for 15 minutes and at a physiological pH, with 10 μl of a 10% (v/v) aqueous solution of dimethyl sulfoxide containing the enzyme inhibitor, where appropriate. After 10 μl of a 10% (v/v) aqueous solution of dimethyl sulfoxide containing 1 mmol of the substrate/l have been added, the enzyme reaction is monitored by fluorescence spectroscopy (328 nm (ex)/393 nm(em)).
(§2) The enzyme activity is recorded as increase in […]/minute. The IC50 values listed in table 2 are determined as the inhibitor concentrations that in each case lead to 50% inhibition of the enzyme.
(§3) The buffer solution contains 0.05% Brij (Sigma, Deisenhofen, Germany) and also 0.1 mol of Tris/HCl/l, 0.1 mol of NaCl/l, 0.01 mol of CaCl2/l and 0.1 mol of piperazine-N,N′-bis[2-ethanesulfonic acid]/l (pH=7.5). The enzyme solution contains 5 μg/ml of one of the enzyme domains prepared as described in Ye et al. The substrate solution contains 1 mmol of the fluorogenic substrate (7-methoxycoumarin-4-yl)acetyl-Pro-Leu-Gly-Leu-3-(2′,4′-dinitrophenyl)-L-2,3-diaminopropionyl-Ala-Arg-NH2/A (Bachem, Heidelberg, Germany).

[2] = biological target: T2, catalytic domain of human stromelysin (MMP-3) (Homo sapiens, UniProt P08254); assay: Enzymatic activity of the catalytic domain of human stromelysin (MMP-3), fluorogenic substrate; assay type: biochemical; details: 15 min preincubation, pH 7.5, fluorescence 328/393 nm
T2 construct: enzymatic activity of the catalytic domain of human stromelysin (MMP-3); made in house
T2 sequence (P08254 100-272 limits assumed): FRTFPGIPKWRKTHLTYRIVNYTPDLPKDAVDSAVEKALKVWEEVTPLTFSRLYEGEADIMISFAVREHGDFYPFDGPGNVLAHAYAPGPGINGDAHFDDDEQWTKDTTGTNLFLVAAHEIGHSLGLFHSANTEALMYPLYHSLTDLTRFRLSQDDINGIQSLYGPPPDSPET
Description: as §1, §2, §3

SMILES	IC50 [1] [nM]	IC50 [2] [nM]
O=C(NO)[C@H]1C[C@H]2CCC[C@H]2N1S(=O)(=O)/C=C/c1ccccc1 [Example 57]	320	330
O=C(NO)[C@H]1C[C@H]2CCC[C@H]2N1S(=O)(=O)c1ccc(-c2ccccc2)cc1 [Example 64]	20	100
O=C(O)[C@H]1C[C@H]2CCC[C@H]2N1S(=O)(=O)c1ccc(-c2ccc(N3CCN(c4ccc(F)cc4)CC3)cc2)cc1 [Example 29]	10000	> 10000

Continued by falling IC50 [1], values first:

IC50 [1] [nM]	IC50 [2] [nM]	SMILES
3700	200	O=C(NO)C1C[C@H]2CCC[C@H]2N1S(=O)(=O)c1ccc(-c2ccc(N3CCN(c4ccc(F)cc4)CC3)cc2)cc1 (single isomer, unassigned) [Example 63]
200	200	O=C(O)C1C[C@H]2CCC[C@H]2N1S(=O)(=O)CCc1ccc(-c2ccc(Br)cc2)cc1 (stereo partly shown) [Example 13]
100	300	O=C(NO)C1C[C@H]2CCC[C@H]2N1S(=O)(=O)c1ccc(I)cc1 (single isomer, unassigned) [Example 65]
4	160	O=C(O)[C@H]1C[C@H]2CCC[C@H]2N1S(=O)(=O)c1ccc(-c2ccc(N3CCCC3)cc2)cc1 [Example 21]
3	22	O=C(NO)[C@H]1C[C@H]2CCC[C@H]2N1S(=O)(=O)c1ccc(-c2ccc([N+](=O)[O-])cc2)cc1 [Example 61]
